Earlier results in patent publication US20070141015A1, “TOPICAL ADMINISTRATION CARRIER COMPOSITION AND THERAPEUTIC FORMULATIONS COMPRISING SAME” (priority 2005, published 2007).

[1] = antihypertensive use, chronic 30 mg/day

steady-state peak level [1]: 250 ng/mL
steady-state trough level [1]: 40 ng/mL
plasma level (topical hair growth stimulant, 1 mL 2% b.i.d. dose): Less than 2-30 ng/ML plasma.
SMILES: Nc1cc(N2CCCCC2)nc(N)[n+]1[O-] [Minoxidil]
1 hour peak plasma level (antihypertensive use, after 5 mg starting dose): Antihypertensive: 1 hour peak after 5 mg starting dose: 60 ng/mL plasma;
